“And” between values parts separate entries of the source, which are not always exact repeats. Equal values may be shown once.
Columns and labels:
[1] = tested on: patients with APBD and GBE1 deficiency; assay: 6 minutes walk test, open-label triheptanoin study; assay type: in vivo, human
Experimental: (§1) Ages ranged from 51-66 years and all were Ashkenazi Jewish. Three patients were able to walk independently, one walked with the help of a walker and a 5th patient was wheelchair bound.
(§2) Baseline evaluation based on the criteria described in Table I, herein below was performed every 3 months.
(§3) The outcome measures included: (i) the 6 minutes walk test and (ii) motion capture gait analysis and (iii) SF-36 Health Survey Questionnaire. […] Maximal improvement seemed to occur within the first 6 months of treatment (FIG. 2). […] Physical Function score increased in 4/5 patients on the SF-36 health survey questionnaire.

[2] = tested on: patients with APBD and GBE1 deficiency; assay: Motion capture gait analysis, open-label triheptanoin study; assay type: in vivo, human
Experimental: as §1, §2, §3

[3] = tested on: patients with APBD and GBE1 deficiency; assay: SF-36 Health Survey Questionnaire, open-label triheptanoin study; assay type: in vivo, human
Experimental: as §1, §2, §3

[4] = tested on: patients with APBD and GBE1 deficiency; assay: Adverse event assessment, open-label triheptanoin study; assay type: in vivo, human; conditions: 5 patients; for Adverse events (AE): mean 8.2 months of treatment
Experimental: as §1
(§4) In the event of an organic acid abnormality such as an excessive urinary excretion of propionic and/or methylmalonic acid occur, biotin and/or vitamin B12 respectively were added to the regimen and normalization of the organic acid and acylcarnitine profile was verified. Should that not be sufficient the dose was reduced until normalization occurs. If still abnormal, patient was be excluded from the study.
Two adverse events not related to the triheptanoin were a broken ankle in one patient and wound treatment in another. […] Safety was also monitored throughout the study by urinary organic acids and blood acylcarnitine profile analyses. Changes in metabolic tests related the ingestion of triheptanoin were identified.

[5] = tested on: patients with APBD and GBE1 deficiency; assay: Urinary organic acids and blood acylcarnitine profile analyses; assay type: in vivo, human
Experimental: as §4
Safety was also monitored throughout the study by urinary organic acids and blood acylcarnitine profile analyses.

[6] = tested on: patients with long chain fatty acid oxidation defects; conditions: 30% to 35% of total daily caloric intake; cited from earlier work
[7] = tested on: patient with adult-onset acid maltase deficiency (Pompe disease); conditions: one patient; cited from earlier work
[8] = tested on: patient with pyruvate carboxylase deficiency; conditions: one patient; cited from earlier work
[9] = 5 patients, within 6 months of treatment

Which “Six minute walk test distance on treatment” value ([1]; 5 patients, mean ± SD after treatment (from 1246±642), p=0.06) does the source give for `CCCCCCC(=O)OCC(COC(=O)CCCCCC)OC(=O)CCCCCC` [triheptanoin, glyceryl triheptanoate] here?
Its value is 1376±692 feet.

And the “Six minute walk test mean increase” value ([1]; 5 patients, triheptanoin oil 1-2 g/fg/24 hours in 4 divided doses, 1246±642 at start, p=0.06)?
Its value is 130 feet.

What about the “Distance walked during 6 minutes (6 minutes walk test)” value [1, 9] of the same compound?
The value was “significant improvement”.

What about the “Time of maximal improvement in 6-minute walk test” value ([1]; FIG. 2) of the same compound?
The value was at most 6 months.

And the “6-minute walk test mean improvement” value ([1]; mean follow up of 8.5 months, n=5, p=0.06)?
Its value is 10%.

And the “6-minute walk test improvement, one patient” value ([1]; one patient, 25 months time point)?
Its value is 126 feet and 9.5%.

What about the “Motor performance and quality of life” value ([1]; open-label study, 5 patients) of the same compound?
Its value is “evidence of improved motor performance as well as quality of life”.

And the “Gait analysis: cadence, support time, stride length, step length and walking speed” value ([2]; 3 patients who were able to walk unaided)?
The value was “improvement”.

What about the Gait analysis [2, 9] of the same compound?
Its Gait analysis is “stability or slight improvement”.

What about the “Patients with increased Physical Function score on the SF-36” value ([3]; 5 patients) of the same compound?
Its value is 4/5.

What about the “SF-36 Health Survey Questionnaire scores” value ([3]; FIG. 3) of the same compound?
The value was “tended to improve in parallel with motor score”.

And the “AE remotely linked to triheptanoin” value [4]?
Its value is “rectal pain reported by one patient”.

What about the “Serious AE” value [4] of the same compound?
The value was “no serious AE related to triheptanoin oil”.

What about the “Adverse events (AE)” value [4] of the same compound?
Its value is “No adverse events (AE) were reported”.

What about the “Adverse events (AE)” value ([4]; listed as triheptanoin oil) of the same compound?
Its value is “No significant adverse events occurred”.

What about the Catabolism of triheptanoin ([5]; conclusion from urine and plasma findings) of the same compound?
Its Catabolism of triheptanoin is “catabolized completely without accumulation of secondary metabolites”.

What about the “Mitochondrial overload from triheptanoin-derived metabolites” value ([5]; urinary organic acids) of the same compound?
The value was “no evidence of mitochondrial overload”.

And the “Urinary excretion of derivatives of heptanoate oxidation (pimelate, 3-hydroxypentanoate, 3-ketopentanoate, 3-hydroxypropionate, methylcitrate)” value ([5]; urine)?
The value was “detected”.

And the “Clinical outcome of diet treatment” value [6]?
Its value is “decreased episodes of rhabdomyolysis, improvement in pain and cardiac function”.

And the Propionyl overload [6]?
The Propionyl overload was “No propionyl overload occurred”.

And the Clinical response [7]?
Its Clinical response is “markedly improved”.

And the “Glutamine and GABA in the CSF” value [8]?
The value was “normalization”.

— patent publication US20110306663A1 (Baylor Research Institute, priority 2010, published 2011)
